molecular target: T1, human CRTH2 (Homo sapiens, UniProt Q9Y5Y4); test: Calcium Flux Assay Using Fluorometric Imaging Plate Reader (FLIPR); type: cell-based; parameters: expressed in transfected cells; host or cells: CHO-K1 previously transfected with G-alpha 16; settings: CHO-K1 cells with G-alpha 16 and human CRTH2; inhibition of ligand (DK-PGD2) response; read-out: IC50 value in FLIPR calcium flux assay
T1 sequence (Q9Y5Y4 1-395): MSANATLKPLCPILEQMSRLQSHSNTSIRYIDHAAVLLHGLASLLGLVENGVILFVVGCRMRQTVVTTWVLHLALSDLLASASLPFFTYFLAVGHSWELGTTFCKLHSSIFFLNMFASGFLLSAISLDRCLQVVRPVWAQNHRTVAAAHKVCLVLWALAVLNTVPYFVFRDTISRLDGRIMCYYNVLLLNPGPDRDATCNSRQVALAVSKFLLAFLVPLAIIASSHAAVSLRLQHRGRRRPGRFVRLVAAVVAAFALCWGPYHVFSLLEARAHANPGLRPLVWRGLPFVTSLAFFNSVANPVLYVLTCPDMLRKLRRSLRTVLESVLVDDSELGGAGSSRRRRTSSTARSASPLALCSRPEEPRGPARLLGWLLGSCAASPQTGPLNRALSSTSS
Experimental: CHO-K1 cells previously transfected with G-alpha 16 were subsequently transfected with the human CRTH2 receptor and the neomycin resistance gene. Following selection in 800 μg/mL G418 (geneticin), individual clones were assayed for their receptor expression based on staining with an anti human CRTH2 IgG, followed by assaying for their response to 13,14-dihydro-15-keto Prostaglandin D2 (DK-PDG2) (ligand) in the Ca^2+ Flux assay. Positive clones were then cloned by limiting dilution cloning. The transfected cells were cultured in Ham's F-12 medium supplemented with 10% fetal bovine serum, 2 mM glutamine, 100 U/mL penicillin/100 μg/mL streptomycin, 200 μg/mL hygromycin B, and 800 μg/mL G418 (geneticin). Cells were harvested with trypsin-EDTA (trypsin-ethylenediaminetetraacetic acid) and counted using ViaCount® reagent (from Guava Technologies, Inc. which contains two DNA-binding dyes that enable the reagent user to distinguish between viable and non-viable cells). The cell suspension volume was adjusted to 2.5×10^5 cells /mL with complete growth media. Aliquots of 50 μL were dispensed into BD Falcon™ 384 well black/clear microplates (from BD Biosciences, a division of Becton, Dickinson and Company) and the microplates were placed in a 37° C. CO2 incubator overnight. The following day, the microplates were used in the assay.
Loading Buffer containing dye (from the FLIPR® Calcium 3 Assay Kit from Molecular Devices, a division of MDS Analytical Technologies and MDS Inc.) was prepared by dissolving the contents of one bottle into 200 mL Hank's Balanced Salt Solution containing 20 mM HEPES (4-(2-hydroxyethyl)-1-piperazineethanesulfonic acid) and 2.5 mM probenecid. Growth media was removed from the cell plates and 25 μL of Hank's Balanced Salt Solution (HBSS) containing 20 mM HEPES, 0.05% BSA and 2.5 mM probenecid was added to each well followed by 25 μL of diluted dye using a Multidrop dispenser. The plates were then incubated for 1 hour at 37° C.
During the incubation, test compound plates were prepared by adding 90 μL of HBSS/20 mM HEPES/0.005% BSA buffer to the 2 μL of serial diluted compounds. To prepare serial diluted compounds, 20 mM stocks of compounds were dissolved in 100% DMSO. The compound dilution plate was set up as follows: well #1 received 5 μL of compound plus 10 μL of DMSO. Wells 2-10 received 10 μL of DMSO. 5 μL was mixed and transferred from well #1 into well #2. 1:3 serial dilutions were continued out 10 steps. 2 μL of diluted compound was transferred into duplicate wells of a 384 well “assay plate” and then 90 μL of buffer was added.
After incubation, both the cell and “assay plate” plates were brought to the fluorometric imaging plate reader (FLIPR®) and 20 μL of the diluted compounds were transferred to the cell plates by the FLIPR®. Plates were then incubated for 1 hour at room temperature. After the 1 hour incubation, plates were returned to the FLIPR® and 20 μL of 4.5× concentrated ligand was added to the cell plates. During the assay, fluorescence readings were taken simultaneously from all 384 wells of the cell plate every 1.5 seconds. Five readings were taken to establish a stable baseline, then 20 μL of sample was rapidly (30 μL/sec) and simultaneously added to each well of the cell plate. The fluorescence was continuously monitored before, during and after sample addition for a total elapsed time of 100 seconds. Responses (increase in peak fluorescence) in each well following agonist addition were determined. The initial fluorescence reading from each well, prior to ligand stimulation, was used as a zero baseline value for the data from that well. The responses were expressed as % inhibition of the buffer control. […]

SMILES | IC50
CN([C@@H]1CCCc2c(OCC(=O)O)cccc21)S(=O)(=O)c1cc(F)cc(C(F)(F)F)c1 [Example 1-1, {(R)-5-[(3-fluoro-5-trifluoromethyl-benzenesulfonyl)-methyl-amino]-5,6,7,8-tetrahydro-naphthalen-1-yloxy}-acetic acid] | 1.77 µM
O=C(O)COc1cccc2c1CCC[C@H]2NS(=O)(=O)c1cc(F)cc(F)c1 [Example 10-5, [(R)-5-(3,5-difluoro-benzenesulfonylamino)-5,6,7,8-tetrahydro-naphthalen-1-yloxy]-acetic acid] | 0.094 µM
O=C(O)COc1cccc2c1CCC[C@H]2NS(=O)(=O)c1cc(F)cc(C(F)(F)F)c1 [Example 10-12, [(R)-5-(3-fluoro-5-trifluoromethyl-benzenesulfonylamino)-5,6,7,8-tetrahydro-naphthalen-1-yloxy]-acetic acid] | 0.313 µM
CN([C@@H]1CCCc2c(OCC(=O)O)cccc21)S(=O)(=O)c1cc(OC2CCCC2)cc(C(F)(F)F)c1 [Example 9-3, {(R)-5-[(3-cyclopentyloxy-5-trifluoromethyl-benzenesulfonyl)-methyl-amino]-5,6,7,8-tetrahydro-naphthalen-1-yloxy}-acetic acid] | 0.462 µM
CCN(CC)c1cc(C(F)(F)F)cc(S(=O)(=O)N(C)[C@@H]2CCCc3c(OCC(=O)O)cccc32)c1 [Example 4-2, {(R)-5-[(3-diethylamino-5-trifluoromethyl-benzenesulfonyl)-methyl-amino]-5,6,7,8-tetrahydro-naphthalen-1-yloxy}-acetic acid] | 2.01 µM

same assay, conditions: CHO-K1 cells with G-alpha 16 and human CRTH2; unit inferred; read-out: IC50 value in FLIPR calcium flux assay (unit inferred)

SMILES | IC50
O=C(O)COc1cccc2c1CCC[C@H]2NS(=O)(=O)c1cc(Cl)cc(Cl)c1 [Example 10-1, [(R)-5-(3,5-dichloro-benzenesulfonylamino)-5,6,7,8-tetrahydro-naphthalen-1-yloxy]-acetic acid] | ~3 µM

— patent US20100041760A1, “MONOARYL AMINOTETRALINES” (priority 2008, published 2010)
